From patent US20060270648A1, “USE OF POLYAMINES WITH ANTIBIOTICS” (priority 2005, published 2006)
Converted amounts (≈) assume the structure as drawn.

Key:
[1] = system: MRSA Staphylococcus aureus 700699; assay: MIC of antibiotics against MRSA Staphylococcus aureus 700699 with or without spermine; type: cell-based; conditions: for MICs in the absence or presence of spermine: Spermine (1 mM): with 1 mM spermine; for MIC: Staphylococcus aureus, MRSA, read-out: MICs in the absence or presence of spermine: No add; for MICs in the absence or presence of spermine: No add / MIC: no spermine
[2] = system: E. coli (K10, K12, C921-61); assay: MIC of antibiotics against E. coli strains with or without polyamines (FIG. 3); type: cell-based; conditions: E. coli K10, K12, C921-61 and S. typhimurium LT2
Experimental: (§1) Various strains of bacteria, including P. aeruginosa and e. coli were grown on Luria-Bertani (LB) agar/broth or Mueller-Hinton (MH) agar/broth. […] The antibiotics, chemicals, and/or polyamines were dissolved in double distilled water or solvent and thereafter filtered through a 0.4 μm disposable membranes.
(§2) The MIC values of the strains associated with various combinations of polyamines and antibiotics were determined using standard two-fold agar dilutions techniques and broth dilutions techniques in Mueller-Hinton broth. The lowest concentration of drug with no visible turbidity was deemed the MIC.

[3] = system: Salmonella typhimurium LT2; conditions: for MICs in the indicated concentrations (mM) of polyamines: Spermine (1 mM): with 1 mM spermine; for MICs in the indicated concentrations (mM) of polyamines: Spermidine (20 mM): with 20 mM spermidine;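 as to all read-outs here: Two-fold agar or broth dilution in Mueller-Hinton broth, MIC taken as lowest drug concentration without visible turbidity, tested alone or combined with polyamines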
Experimental: as §1, §2

[4] = system: methicillin resistant Staphylococcus aureus (MRSA) Mu50; assay: MIC of antibiotics against MRSA Mu50 with or without spermine; type: cell-based; conditions: for MICs in the presence or absence of spermine (1 mM): Spermine: with 1 mM spermine; for MIC: Staphylococcus aureus, MRSA, read-out: MICs in the presence or absence of spermine (1 mM): No add
P. aeruginosa PAO1 = assay: MIC of antibiotics against P. aeruginosa PAO1 with or without polyamines; type: cell-based
Experimental: as §1, §2

[5] = system: Salmonella typhimurium LT2; assay: microbe, parasite or virus in culture; conditions: Salmonella enterica, read-out: MICs in the indicated concentrations (mM) of polyamines: No add;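 also: Two-fold agar or broth dilution in Mueller-Hinton broth, MIC taken as lowest drug concentration without visible turbidity, tested alone or combined with polyamines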
Experimental: as §1, §2

Compound | MICs in the absence or presence of spermine: Spermine (1 mM) [1] [µg/mL] | susceptibility with the combination of polyamines and antibiotics [2] | MICs in the indicated concentrations (mM) of polyamines: Spermine (1 mM) [3] [µg/mL] | MICs in the indicated concentrations (mM) of polyamines: Spermidine (20 mM) [3] [µg/mL] | MICs in the presence or absence of spermine (1 mM): Spermine [4] [µg/mL] | MIC [1] [µg/mL] | MIC ([4]; no spermine) [µg/mL] | MIC [5] [µg/mL] | also measured
CC1(C)S[C@@H]2[C@H](NC(=O)Cc3ccccc3)C(=O)N2[C@H]1C(=O)O [Penicillin G] | 0.25 | improved susceptibility | 2 | 2 | 0.25 | – | – | – | MICs in the absence or presence of spermine: No add [1]: 16 µg/mL; MICs in the indicated concentrations (mM) of polyamines: No add ([3]; no polyamine): 16 µg/mL; MICs in the presence or absence of spermine (1 mM): No add ([4]; no spermine): 16 µg/mL
NCCCCCN [Cadaverine] | – | – | – | – | – | – | – | – | MICs to carbenicillin in the indicated concentration of polyamines (P. aeruginosa PAO1; 0 mM polyamine): 64 µg/mL; MICs to carbenicillin in the indicated concentration of polyamines (P. aeruginosa PAO1; 0.5 mM polyamine): 64 µg/mL; MICs to carbenicillin in the indicated concentration of polyamines (P. aeruginosa PAO1; 1 mM polyamine): 32 µg/mL; MICs to carbenicillin in the indicated concentration of polyamines (P. aeruginosa PAO1; 5 mM polyamine): 32 µg/mL; MICs to carbenicillin in the indicated concentration of polyamines (P. aeruginosa PAO1; 10 mM polyamine): 32 µg/mL; MICs to carbenicillin in the indicated concentration of polyamines (P. aeruginosa PAO1; 20 mM polyamine): 16 µg/mL
Cc1onc(-c2ccccc2Cl)c1C(=O)N[C@@H]1C(=O)N2[C@@H]1SC(C)(C)[C@@H]2C(=O)O [Cloxacillin] | 2 | – | – | – | 1 | > 256 | ≥ 256 | – | –
CO/N=C(\C(=O)N[C@@H]1C(=O)N2C(C(=O)O)=C(COC(C)=O)CS[C@H]12)c1csc(N)n1 [Cefotaxime] | 1 | – | – | – | 1 | 128 | 128 | – | –
CC(=O)OCC1=C(C(=O)O)N2C(=O)[C@@H](NC(=O)Cc3cccs3)[C@H]2SC1 [Cephalothin] | 4 | – | – | – | 4 | 32 | 32 | – | –
CC(=O)OCC1=C(C(=O)O)N2C(=O)[C@@H](NC(=O)CCC[C@@H](N)C(=O)O)[C@H]2SC1 [Cephalosporin C] | >128 | – | – | – | – | – | – | – | MICs in the absence or presence of spermine: No add [1]: >512 µg/mL
Gentamicin | 256 | – | – | – | – | – | – | – | MICs in the absence or presence of spermine: No add [1]: 256 µg/mL
CC1(C)S[C@@H]2[C@H](NC(=O)[C@H](C(=O)O)c3ccsc3)C(=O)N2[C@H]1C(=O)O [Ticarcillin] | 4 | improved susceptibility | 0.5 | 1 | 4 | 256 | 256 | 4 (≈ 10.4 µM) | –
CCN1CCN(C(=O)N[C@@H](C(=O)N[C@@H]2C(=O)N3C(C(=O)O)=C(CSc4nnnn4C)CS[C@H]23)c2ccc(O)cc2)C(=O)C1=O [Cefoperazone] | >4 | – | – | – | 16 | > 512 | > 512 | – | –
C[C@H]1[C@H](NC(=O)/C(=N\OC(C)(C)C(=O)O)c2csc(N)n2)C(=O)N1S(=O)(=O)O [Aztreonam] | >256 | – | – | – | – | > 1020 | – | – | –
CN[C@@H]1[C@H](O)[C@H](NC)[C@H]2O[C@@]3(O)C(=O)C[C@@H](C)O[C@H]3O[C@@H]2[C@H]1O [Spectinomycin] | – | improved susceptibility | 32 | 32 | – | – | – | 32 (≈ 96.3 µM) | –
CC1(C)S[C@@H]2[C@H](NC(=O)[C@H](NC(=O)N3CCNC3=O)c3ccccc3)C(=O)N2[C@H]1C(=O)O [Azlocillin] | 0.5 | improved susceptibility | 4 | 1 | 0.5 | 16 | 16 | 16 (≈ 34.7 µM) | –
Cc1onc(-c2ccccc2)c1C(=O)N[C@@H]1C(=O)N2[C@@H]1SC(C)(C)[C@@H]2C(=O)O [Oxacillin] | 2 | improved susceptibility | – | 64 | 1 | ≥ 256 | ≥ 256 | 256 (≈ 638 µM) | decrease of MIC with exogenous spermine ([4]; spermine 1 mM and less): over 100 fold
